Data: US11352350B2, “IRAK degraders and uses thereof” (Kymera Therapeutics, Inc., priority 2018, dated 2022)
pIC50: −log10 of the molar value. Read-outs that look alike come from different tables or passages of the source.

Tested on: OCI-LY10
Test: CTG Cell Viability Assay - OCI-LY10
Assay type: cell-based, human
Details: OCI-LY10, 4 days, read-out: CTG Cell Viability Assay - OCI-LY10: Average external-IC50
Description: Compound-mediated viability effect on OCI-LY10 or TMD8 was quantitatively determined using the CellTiter-Glo® Luminescent Cell Viability Assay kit from Promega (Catalog number G7570) following manufacturer's recommended procedures. […] Compounds were then added to the assay plate with final top concentration of 10 μM and 1:3 dilution series with total of 9 doses. The final DMSO concentration was normalized to 0.2%. The assay plates were incubated at 37° C. for 4 days under 5% CO2. Then the assay plate was equilibrated at room temperature for 10 minutes. […] The data was then analyzed by software Prism 7.0 from GraphPad and the dose response curves were fit using a three-parameter logistic equation to calculate IC50.

Structure (SMILES)	pIC50 (Homo sapiens, OCI-Ly10, 96 h)	other results
CN(C[C@@H]1CN(CCNCc2ccc3c(c2)n(C)c(=O)n3C2CCC(=O)NC2=O)CCO1)C(=O)[C@H]1CC[C@H](n2cc(NC(=O)c3coc(-c4ccnc(NCC5CC5)c4)n3)c(C(F)F)n2)CC1 (some centres unmarked) [I-106]	< 6.00	
Cn1c(=O)n(C2CCC(=O)NC2=O)c2ccc(CN3CCN([C@@H]4CCN(C[C@H]5CC[C@H](n6cc(NC(=O)c7coc(-c8ccnc(NCC9CC9)c8)n7)c(C(F)F)n6)CC5)C4)CC3)cc21 (some centres unmarked) [I-110]	< 6.00	
Cn1c(=O)n(C2CCC(=O)NC2=O)c2cccc(CCCOCC(F)CNC(=O)c3cnc(-n4ncc5cc(C#N)cnc54)cc3NC3CC3)c21 (centres unmarked) [I-137]	< 6.00	
CN(CCOCCCc1cccc2c1n(C)c(=O)n2C1CCC(=O)NC1=O)C[C@H]1CC[C@H](n2cc(NC(=O)c3coc(-c4ccnc(NCC5CC5)c4)n3)c(C(F)F)n2)CC1 (some centres unmarked) [I-124]	< 6.00	
CN1C(=O)C(C2CCC(=O)NC2=O)c2cccc(CCCOC3CCN(CC4CCC(n5cc(NC(=O)c6cnn7ccc(NC8CCCCC8O)nc67)c(C(F)F)n5)CC4)CC3)c21 (centres unmarked) [I-290]		pIC50: < 6.00
Cn1c(=O)n(C2CCC(=O)NC2=O)c2cccc(CCCOC3CCN(C[C@H]4CC[C@H](n5cc(NC(=O)c6cnn7ccc(N8CCNCC8)nc67)c(C(F)F)n5)CC4)CC3)c21 (some centres unmarked) [I-125]	< 6.00	
O=C1CCC(n2c3ccccc3c3c(CCCOC4CCN(CC5CCC(n6cc(NC(=O)c7coc(-c8ccnc(NCC9CC9)c8)n7)c(C(F)F)n6)CC5)CC4)ccnc32)C(=O)N1 (centres unmarked) [I-123]	6.00 to 6.30	
CN(CCOCCCc1ccc2c(c1)n(C)c(=O)n2C1CCC(=O)NC1=O)C[C@H]1CC[C@H](n2cc(NC(=O)c3coc(-c4ccnc(NCC5CC5)c4)n3)c(C(F)F)n2)CC1 (some centres unmarked) [I-128]	< 6.00	
Cn1c(=O)n(C2CCC(=O)NC2=O)c2cccc(CCCOC3CN(C[C@H]4CC[C@H](n5cc(NC(=O)c6coc(-c7ccnc(NCC8CC8)c7)n6)c(C(F)F)n5)CC4)C3)c21 (some centres unmarked) [I-122]	< 6.00	
CN1C(=O)CCC(n2c(=O)n(C)c3c(C#CCOC4CCN(C[C@H]5CC[C@H](n6cc(NC(=O)c7cnn8ccc(N9C[C@H]%10C[C@@H]9CO%10)nc78)c(C(F)F)n6)CC5)CC4)cccc32)C1=O (stereo partly drawn) [I-563, N-[3-(difluoromethyl)-1-[4-[[4-[3-[3-methyl-1-(1-methyl-2,6-dioxo-3-piperidyl)-2-oxo-benzimidazol-4-yl]prop-2-ynoxy]-1-piperidyl]methyl]cyclohexyl]pyrazol-4-yl]-5-[(1R,4R)-2-oxa-5-azabicyclo [2.2.1]heptan-5-yl] pyrazolo[1,5-a] pyrimidine-3-carboxamide]		pIC50 (Homo sapiens, 96 h): < 6.00
CC1C(=O)N(C2CCC(=O)NC2=O)c2cccc(C3CCN(CCCN(C)C[C@H]4CC[C@H](n5cc(NC(=O)c6coc(-c7ccnc(NCC8CC8)c7)n6)c(C(F)F)n5)CC4)CC3)c21 (some centres unmarked) [I-114]		pIC50: 6.30 to 7.00
Cn1c(=O)n(C2CCC(=O)NC2=O)c2ccc(CCCOCC3CCN(C[C@H]4CC[C@H](n5cc(NC(=O)c6coc(-c7ccnc(NCC8CC8)c7)n6)c(C(F)F)n5)CC4)CC3)cc21 (some centres unmarked) [I-119]	< 6.00	
Cn1c(=O)n(C2CCC(=O)NC2=O)c2ccc(CCCOC3CN(C[C@H]4CC[C@H](n5cc(NC(=O)c6coc(-c7ccnc(NCC8CC8)c7)n6)c(C(F)F)n5)CC4)C3)cc21 (some centres unmarked) [I-121]	< 6.00	
CN(CCCOCC#Cc1ccc2c(c1)n(C)c(=O)n2C1CCC(=O)NC1=O)C[C@H]1CC[C@H](n2cc(NC(=O)c3coc(-c4ccnc(NCC5CC5)c4)n3)c(C(F)F)n2)CC1 (some centres unmarked) [I-126]	< 6.00	
CN(C[C@@H]1CN(CCNCc2ccc3c(c2)n(C)c(=O)n3C2CCC(=O)NC2=O)CCO1)C[C@H]1CC[C@H](n2cc(NC(=O)c3coc(-c4ccnc(NCC5CC5)c4)n3)c(C(F)F)n2)CC1 (some centres unmarked) [I-109]	< 6.00	
Cn1c(=O)n(C2CCC(=O)NC2=O)c2cccc(-c3ccc4nn(CCOC[C@H]5CC[C@H](n6cc(NC(=O)c7cnn8ccc(N9CCOCC9)nc78)c(C(F)F)n6)CC5)cc4c3)c21 (some centres unmarked) [I-406]	< 6.00	
Cn1c(=O)n(C2CCC(=O)NC2=O)c2cccc(-c3ccc4c(cnn4CCOC[C@H]4CC[C@H](n5cc(NC(=O)c6cnn7ccc(N8CCOCC8)nc67)c(C(F)F)n5)CC4)c3)c21 (some centres unmarked) [I-405]	< 6.00	
